Common to all, as to assay type: binding
In one test the target is T1, JAK1 (Homo sapiens, UniProt P23458).
T1 construct: endogenous in cells; host or cells: Molt4 (ATCC CRL-1582) and Ramos (ATCC CRL-1596) cells; mixed lysate 1:2
The experiment in a line: Kinobeads assay with immunodetection, JAK1. The settings on record: for IC50: Kinobeads assay, mixed Molt4/Ramos lysate, read-out: Inhibition values (IC50) JAK1. The gist of the method:
(§1)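 Steps: compound serially diluted 1:3 in DMSO; added with kinobeads to mixed Molt4/Ramos lysate; 3 h cold incubation; wash; SDS elution; antibody dot blot quantitation of each kinase; IC50 fitting.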

The target of a further test is T2, JAK2 (Homo sapiens, UniProt O60674).
T2 construct: endogenous in cells; host or cells: Molt4 (ATCC CRL-1582) and Ramos (ATCC CRL-1596) cells; mixed lysate 1:2
The experiment in a line: Kinobeads assay with immunodetection, JAK2. The following applies: mixed Molt4/Ramos lysate, read-out: Inhibition values (IC50) JAK2. In a few lines: as §1

A further test deals with T3, JAK3 (Homo sapiens, UniProt P52333).
T3 construct: endogenous in cells; host or cells: Molt4 (ATCC CRL-1582) and Ramos (ATCC CRL-1596) cells; mixed lysate 1:2
T3 sequence (P52333 1-1124): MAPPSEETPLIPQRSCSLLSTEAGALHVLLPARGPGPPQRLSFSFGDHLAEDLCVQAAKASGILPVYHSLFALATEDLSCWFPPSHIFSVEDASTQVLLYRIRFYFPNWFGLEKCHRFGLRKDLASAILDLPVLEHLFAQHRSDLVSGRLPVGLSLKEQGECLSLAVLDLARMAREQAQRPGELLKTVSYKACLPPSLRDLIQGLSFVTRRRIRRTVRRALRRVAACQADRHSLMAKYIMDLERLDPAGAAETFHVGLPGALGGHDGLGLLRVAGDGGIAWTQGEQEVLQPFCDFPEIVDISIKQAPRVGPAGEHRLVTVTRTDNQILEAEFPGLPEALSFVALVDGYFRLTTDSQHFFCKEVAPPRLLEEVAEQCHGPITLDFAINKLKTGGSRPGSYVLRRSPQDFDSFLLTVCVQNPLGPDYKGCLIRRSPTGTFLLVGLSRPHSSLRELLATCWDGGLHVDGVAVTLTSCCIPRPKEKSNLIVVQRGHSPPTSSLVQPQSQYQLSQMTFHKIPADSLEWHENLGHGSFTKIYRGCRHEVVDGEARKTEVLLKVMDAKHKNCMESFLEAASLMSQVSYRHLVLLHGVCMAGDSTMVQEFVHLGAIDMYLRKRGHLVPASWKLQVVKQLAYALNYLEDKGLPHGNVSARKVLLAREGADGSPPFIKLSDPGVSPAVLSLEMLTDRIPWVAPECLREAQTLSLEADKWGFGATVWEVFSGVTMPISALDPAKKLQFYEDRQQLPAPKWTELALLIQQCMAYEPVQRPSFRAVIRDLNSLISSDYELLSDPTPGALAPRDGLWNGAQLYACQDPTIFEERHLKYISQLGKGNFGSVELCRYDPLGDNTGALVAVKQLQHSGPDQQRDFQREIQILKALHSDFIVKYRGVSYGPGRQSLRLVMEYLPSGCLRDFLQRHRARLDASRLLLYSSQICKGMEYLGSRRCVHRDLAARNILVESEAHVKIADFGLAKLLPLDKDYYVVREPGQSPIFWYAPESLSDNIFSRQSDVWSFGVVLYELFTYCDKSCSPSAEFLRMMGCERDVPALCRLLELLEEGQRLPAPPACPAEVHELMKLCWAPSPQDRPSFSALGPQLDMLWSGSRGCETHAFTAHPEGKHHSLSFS
The experiment in a line: Kinobeads assay with immunodetection, JAK3. The following applies: Kinobeads assay, mixed Molt4/Ramos lysate; read-out: Inhibition values (IC50) JAK3. In a few lines: as §1

In another test the target is T4, TYK2 (Homo sapiens, UniProt P29597).
T4 construct: endogenous in cells; host or cells: Molt4 (ATCC CRL-1582) and Ramos (ATCC CRL-1596) cells; mixed lysate 1:2
The experiment in a line: Kinobeads assay with immunodetection, TYK2. The following applies: for IC50: Kinobeads assay, mixed Molt4/Ramos lysate, read-out: Inhibition values (IC50) Tyk2. In a few lines: as §1

Molecules are shown by their SMILES. Structures can show the parent of a compound that is named as a salt.

What is called IC50 is the concentration that gives 50% inhibition.

T1 sequence (P23458 whole entry): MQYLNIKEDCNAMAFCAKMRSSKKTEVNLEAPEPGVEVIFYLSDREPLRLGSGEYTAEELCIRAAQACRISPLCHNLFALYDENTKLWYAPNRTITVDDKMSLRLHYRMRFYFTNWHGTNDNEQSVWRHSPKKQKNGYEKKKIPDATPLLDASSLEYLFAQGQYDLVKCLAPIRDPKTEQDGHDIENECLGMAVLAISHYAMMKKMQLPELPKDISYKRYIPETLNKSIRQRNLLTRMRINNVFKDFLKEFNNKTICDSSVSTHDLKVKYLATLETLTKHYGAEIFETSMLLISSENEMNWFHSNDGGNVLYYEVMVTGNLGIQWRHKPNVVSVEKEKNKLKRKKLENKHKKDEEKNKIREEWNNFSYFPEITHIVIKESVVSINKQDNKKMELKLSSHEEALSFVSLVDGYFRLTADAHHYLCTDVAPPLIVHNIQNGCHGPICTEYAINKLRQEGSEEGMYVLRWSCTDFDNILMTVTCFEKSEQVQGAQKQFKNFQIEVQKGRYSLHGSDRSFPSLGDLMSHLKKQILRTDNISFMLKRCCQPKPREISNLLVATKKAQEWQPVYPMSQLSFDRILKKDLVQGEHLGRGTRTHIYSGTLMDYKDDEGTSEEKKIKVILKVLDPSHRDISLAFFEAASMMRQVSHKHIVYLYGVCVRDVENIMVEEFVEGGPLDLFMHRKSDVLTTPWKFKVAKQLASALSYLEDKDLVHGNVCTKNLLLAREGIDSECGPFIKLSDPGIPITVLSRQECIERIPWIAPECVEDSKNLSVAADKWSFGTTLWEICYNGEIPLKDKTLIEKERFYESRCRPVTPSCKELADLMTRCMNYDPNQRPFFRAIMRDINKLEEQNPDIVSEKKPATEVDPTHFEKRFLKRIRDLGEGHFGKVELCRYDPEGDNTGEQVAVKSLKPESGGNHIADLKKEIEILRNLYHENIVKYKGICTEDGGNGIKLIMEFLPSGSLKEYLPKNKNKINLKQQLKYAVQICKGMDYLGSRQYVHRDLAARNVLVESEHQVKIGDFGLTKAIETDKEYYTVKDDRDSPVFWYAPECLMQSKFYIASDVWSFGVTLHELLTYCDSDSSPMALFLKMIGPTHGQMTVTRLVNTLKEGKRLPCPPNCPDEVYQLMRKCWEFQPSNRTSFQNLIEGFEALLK
T2 sequence (O60674 whole entry): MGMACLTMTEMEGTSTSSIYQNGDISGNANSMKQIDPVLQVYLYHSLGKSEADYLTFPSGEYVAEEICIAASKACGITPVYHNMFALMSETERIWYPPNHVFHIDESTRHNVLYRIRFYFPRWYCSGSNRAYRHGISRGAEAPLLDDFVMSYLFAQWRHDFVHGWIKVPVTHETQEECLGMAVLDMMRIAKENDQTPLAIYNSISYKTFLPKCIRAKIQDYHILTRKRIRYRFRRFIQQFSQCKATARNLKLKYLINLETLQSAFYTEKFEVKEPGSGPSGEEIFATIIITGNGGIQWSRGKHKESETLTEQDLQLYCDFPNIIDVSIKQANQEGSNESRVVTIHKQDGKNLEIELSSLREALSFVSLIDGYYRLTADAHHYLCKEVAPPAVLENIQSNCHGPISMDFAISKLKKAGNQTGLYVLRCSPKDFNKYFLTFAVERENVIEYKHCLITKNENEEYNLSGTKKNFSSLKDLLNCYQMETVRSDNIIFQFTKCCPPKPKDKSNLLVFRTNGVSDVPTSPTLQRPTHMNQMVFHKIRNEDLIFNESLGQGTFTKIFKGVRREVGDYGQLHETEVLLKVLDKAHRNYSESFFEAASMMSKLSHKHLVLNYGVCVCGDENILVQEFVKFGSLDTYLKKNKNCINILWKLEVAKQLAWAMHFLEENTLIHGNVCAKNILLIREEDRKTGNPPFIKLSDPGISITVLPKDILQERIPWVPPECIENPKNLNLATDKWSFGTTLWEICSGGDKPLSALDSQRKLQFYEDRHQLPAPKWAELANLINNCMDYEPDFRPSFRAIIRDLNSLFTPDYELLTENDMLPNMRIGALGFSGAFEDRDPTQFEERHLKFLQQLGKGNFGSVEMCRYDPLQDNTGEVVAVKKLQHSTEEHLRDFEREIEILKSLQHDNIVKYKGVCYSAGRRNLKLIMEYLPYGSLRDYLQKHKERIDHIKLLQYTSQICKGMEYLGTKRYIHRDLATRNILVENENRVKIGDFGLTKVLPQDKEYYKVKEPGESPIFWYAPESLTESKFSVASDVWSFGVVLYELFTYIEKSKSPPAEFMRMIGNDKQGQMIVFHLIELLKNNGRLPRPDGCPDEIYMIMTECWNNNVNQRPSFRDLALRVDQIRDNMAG
T4 sequence (P29597 whole entry): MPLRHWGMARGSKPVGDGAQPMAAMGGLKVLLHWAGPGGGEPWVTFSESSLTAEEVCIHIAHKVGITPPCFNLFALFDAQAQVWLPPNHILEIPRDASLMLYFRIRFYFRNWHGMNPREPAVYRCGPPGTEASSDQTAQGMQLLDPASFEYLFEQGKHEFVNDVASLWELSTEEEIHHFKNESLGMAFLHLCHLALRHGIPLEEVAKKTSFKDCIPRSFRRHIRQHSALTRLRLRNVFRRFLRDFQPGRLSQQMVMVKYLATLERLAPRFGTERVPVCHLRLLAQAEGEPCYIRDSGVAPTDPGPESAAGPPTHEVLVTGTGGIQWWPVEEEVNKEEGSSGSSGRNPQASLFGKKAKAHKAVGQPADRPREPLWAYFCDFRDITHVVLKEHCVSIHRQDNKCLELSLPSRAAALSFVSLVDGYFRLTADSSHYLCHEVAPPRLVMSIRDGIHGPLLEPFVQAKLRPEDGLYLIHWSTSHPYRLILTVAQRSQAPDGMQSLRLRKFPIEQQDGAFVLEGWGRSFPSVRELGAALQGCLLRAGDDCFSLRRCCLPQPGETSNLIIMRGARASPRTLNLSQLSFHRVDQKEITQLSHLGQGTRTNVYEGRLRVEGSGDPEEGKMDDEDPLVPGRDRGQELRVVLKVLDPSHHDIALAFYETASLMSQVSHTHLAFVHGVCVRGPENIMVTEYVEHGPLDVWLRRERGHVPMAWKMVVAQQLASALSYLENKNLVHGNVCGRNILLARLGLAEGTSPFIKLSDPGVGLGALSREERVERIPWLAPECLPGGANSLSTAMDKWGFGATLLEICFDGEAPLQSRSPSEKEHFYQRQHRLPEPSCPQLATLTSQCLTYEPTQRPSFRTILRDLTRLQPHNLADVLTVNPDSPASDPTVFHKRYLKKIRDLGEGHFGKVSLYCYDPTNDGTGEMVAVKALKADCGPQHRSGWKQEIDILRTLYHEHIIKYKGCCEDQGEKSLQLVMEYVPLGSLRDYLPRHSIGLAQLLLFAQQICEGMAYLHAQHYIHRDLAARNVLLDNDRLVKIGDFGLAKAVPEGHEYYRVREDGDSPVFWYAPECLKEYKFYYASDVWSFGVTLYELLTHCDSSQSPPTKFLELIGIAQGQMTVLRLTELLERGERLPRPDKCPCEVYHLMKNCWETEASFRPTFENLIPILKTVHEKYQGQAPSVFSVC

As to `Cn1cc(Nc2nccc(NC[C@H]3CCCN3C(=O)CCC#N)n2)cn1` [Example 93, (R)-4-(2-(((2-((1-methyl-1H-pyrazol-4-yl)amino)pyrimidin-4-yl)amino)methyl)pyrrolidin-1-yl)-4-oxobutanenitrile], the IC50 is under 0.1 µM at JAK1, 1 to 10 µM on JAK2, 1 to 10 µM on JAK3 and under 0.1 µM at TYK2. Further, the “Selectivity ratio over JAK2, Tyk2” value at TYK2 is given as “Tyk2 = 145”.
Take `C=CC(=O)N1CC[C@@H](CNc2nc(Nc3cnn(CCO)c3)ncc2Cl)C1` [Example 29, (S)-1-(3-(((5-chloro-2-((1-(2-hydroxyethyl)-1H-pyrazol-4-yl)amino)pyrimidin-4-yl)amino)methyl)pyrrolidin-1-yl)prop-2-en-1-one]: the IC50 on JAK1 was 0.1 to 1 µM; on JAK2, over 10 µM; on JAK3, 0.1 to 1 µM; at TYK2 it was 1 to 10 µM.
As for `CN(C)C(=O)Cn1cc(Nc2ncc(Cl)c(NC[C@H]3CCCN3)n2)cn1` [Example 64, (R)-2-(4-(5-chloro-4-(pyrrolidin-2-ylmethylamino)pyrimidin-2-ylamino)-1H-pyrazol-1-yl)-N,N-dimethylacetamide], the IC50 at JAK1 is 0.1 to 1 µM; on JAK2, over 10 µM; on JAK3, 1 to 10 µM; at TYK2 it was 1 to 10 µM.
Consider `C=CC(=O)N1CCCC[C@@H]1CNc1nc(Nc2cnn(CCO)c2)ncc1Cl` [Example 42, (R)-1-(2-(((5-chloro-2-((1-(2-hydroxyethyl)-1H-pyrazol-4-yl)amino)pyrimidin-4-yl)amino)methyl)piperidin-1-yl)prop-2-en-1-one], for which the IC50 at JAK1 is 0.1 to 1 µM; at JAK2 it was 0.1 to 1 µM; at JAK3, 0.1 to 1 µM; at TYK2, under 0.1 µM. Further, the “Selectivity ratio over JAK2, Tyk2” value on TYK2 is “Tyk2 = 4”.
For the compound `CC(=O)N1CC[C@@H](CNc2nc(Nc3cnn(CCO)c3)ncc2Cl)C1` [Example 27, (S)-1-(3-(((5-chloro-2-((1-(2-hydroxyethyl)-1H-pyrazol-4-yl)amino)pyrimidin-4-yl)amino)methyl)pyrrolidin-1-yl)ethanone], the “Selectivity ratio over JAK2, JAK1” value on JAK1 is “JAK1 = 23”. Besides, the IC50 lay within 0.1 to 1 µM at JAK1, 1 to 10 µM at JAK2, 0.1 to 1 µM on JAK3 and 0.1 to 1 µM on TYK2.
Consider `CC(=O)N1CCC[C@@H]1CNc1nc(Nc2cnn(CCO)c2)ncc1Cl` [Example 2, (R)-1-(2-(((5-chloro-2-((1-(2-hydroxyethyl)-1H-pyrazol-4-yl)amino)pyrimidin-4-yl)amino)methyl)pyrrolidin-1-yl)ethanone], for which the “Selectivity ratio over JAK2, JAK1” value at JAK1 was “JAK1 = 6”. Besides, the IC50 was under 0.1 µM on JAK1, 0.1 to 1 µM on JAK2, under 0.1 µM on JAK3 and under 0.1 µM on TYK2.
`Cn1cc(Nc2ncc(Cl)c(NC[C@@H]3CCN(S(C)(=O)=O)C3)n2)cn1` [Example 30, (S)-5-chloro-N^2-(1-methyl-1H-pyrazol-4-yl)-N^4-((1-(methylsulfonyl)pyrrolidin-3-yl)methyl)pyrimidine-2,4-diamine]: the IC50 was 1 to 10 µM on JAK1, 1 to 10 µM at JAK2, 0.1 to 1 µM on JAK3 and 0.1 to 1 µM on TYK2. The “Selectivity ratio over JAK2, Tyk2” value on TYK2 is reported as “Tyk2 = 9”.
Consider `Cn1cc(Nc2ncc(Cl)c(NC[C@@H]3CCCN3CCS(C)(=O)=O)n2)cn1` [Example 82, (S)-5-chloro-N^2-(1-methyl-1H-pyrazol-4-yl)-N^4-((1-(2-(methylsulfonyl)ethyl)pyrrolidin-2-yl)methyl)pyrimidine-2,4-diamine], for which the “Selectivity ratio over JAK2, JAK1” value at JAK1 was “JAK1 = 34”. In addition, the IC50 at JAK1 is under 0.1 µM; on JAK2 it was under 0.1 µM; on JAK3, 0.1 to 1 µM; on TYK2, under 0.1 µM.
`CNC(=O)Cn1cc(Nc2ncc(Cl)c(NC[C@H]3CCCN3)n2)cn1` [Example 63, (R)-2-(4-(5-chloro-4-(pyrrolidin-2-ylmethylamino)pyrimidin-2-ylamino)-1H-pyrazol-1-yl)-N-methylacetamide]: the IC50 was 1 to 10 µM at JAK1, over 10 µM at JAK2, 1 to 10 µM at JAK3 and 1 to 10 µM on TYK2.
As for `Cc1cnc(Nc2cnn(C)c2)nc1NC[C@@H]1CCCN1S(C)(=O)=O` [Example 77, (S)-5-methyl-N^2-(1-methyl-1H-pyrazol-4-yl)-N^4-((1-(methylsulfonyl)pyrrolidin-2-yl)methyl)pyrimidine-2,4-diamine], the “Selectivity ratio over JAK2, JAK1” value on JAK1 is given as “JAK1 = 28”. Besides, the IC50 on JAK1 was under 0.1 µM; on JAK2, 0.1 to 1 µM; at JAK3 it was under 0.1 µM; on TYK2, under 0.1 µM.
Regarding `Cc1cnc(Nc2cnn(CC(F)F)c2)nc1NC[C@@H]1CCCN1CCS(C)(=O)=O` [Example 123, (S)—N^2-(1-(2,2-difluoroethyl)-1H-pyrazol-4-yl)-5-methyl-N^4-((1-(2-(methylsulfonyl)ethyl)pyrrolidin-2-yl)methyl)pyrimidine-2,4-diamine], at JAK1, the “Selectivity ratio over JAK2, JAK1” value is given as “JAK1 = 182”. Further, the IC50 is under 0.1 µM at JAK1, 1 to 10 µM on JAK2, 0.1 to 1 µM on JAK3 and under 0.1 µM on TYK2.
`C=CS(=O)(=O)N1CCC[C@H]1CNc1nc(Nc2cnn(CCO)c2)ncc1Cl` [Example 15, (S)-2-(4-((5-chloro-4-(((1-(vinylsulfonyl)pyrrolidin-2-yl)methyl)amino)pyrimidin-2-yl)amino)-1H-pyrazol-1-yl)ethanol]: at JAK1, the “Selectivity ratio over JAK2, JAK1” value is “JAK1 = 13”. The IC50 at JAK1 was under 0.1 µM; on JAK2, 0.1 to 1 µM; on JAK3, under 0.1 µM; at TYK2 it was under 0.1 µM.
Consider `Cc1cnc(Nc2cnn(C)c2)nc1NC[C@H]1CCCN1` [Example 72, (R)-5-methyl-N^2-(1-methyl-1H-pyrazol-4-yl)-N^4-(pyrrolidin-2-ylmethyl)pyrimidine-2,4-diamine Hydrochloride], for which the 50% inhibitory concentration (IC50) at JAK1 is 1 to 10 µM; on JAK2, over 10 µM; at JAK3 it was over 10 µM; on TYK2, over 10 µM.
For the compound `Cc1cnc(Nc2cnn(C)c2)nc1NC[C@@H]1C[C@H](F)CN1CCS(C)(=O)=O` [Example 100, N^4-(((2S,4S)-4-fluoro-1-(2-(methylsulfonyl)ethyl)pyrrolidin-2-yl)methyl)-5-methyl-N^2-(1-methyl-1H-pyrazol-4-yl)pyrimidine-2,4-diamine], at JAK1, the “Selectivity ratio over JAK2, JAK1” value is “JAK1 = 26”. Moreover, the IC50 was under 0.1 µM at JAK1, 0.1 to 1 µM at JAK2, 0.1 to 1 µM on JAK3 and under 0.1 µM at TYK2.
As to `C=CS(=O)(=O)N1CCC[C@H]1CNc1nc(Nc2cnn(C)c2)ncc1Cl` [Example 14, (S)-5-chloro-N^2-(1-methyl-1H-pyrazol-4-yl)-N^4-((1-(vinylsulfonyl)pyrrolidin-2-yl)methyl)pyrimidine-2,4-diamine], the IC50 at JAK1 is 0.1 to 1 µM; on JAK2, 1 to 10 µM; at JAK3, under 0.1 µM; on TYK2 it was under 0.1 µM. Moreover, the “Selectivity ratio over JAK2, Tyk2” value at TYK2 is “Tyk2 = 14”.
Turning to `CS(=O)(=O)N1CCC[C@@H]1CNc1nc(Nc2cnn(CCO)c2)ncc1Cl` [Example 6, (R)-2-(4-((5-chloro-4-(((1-(methylsulfonyl)pyrrolidin-2-yl)methyl)amino)pyrimidin-2-yl)amino)-1H-pyrazol-1-yl)ethanol], the IC50 was under 0.1 µM on JAK1, 0.1 to 1 µM at JAK2, under 0.1 µM at JAK3 and under 0.1 µM at TYK2. Moreover, the “Selectivity ratio over JAK2, Tyk2” value on TYK2 is given as “Tyk2 = 11”.

Source of the values: patent US20150005281A1, “PYRIMIDINE-2,4-DIAMINE DERIVATIVES AS KINASE INHIBITORS” (Cellzome Limited, priority 2011, published 2015).
